This is an account of results in US20050279350A1, “Methods and apparatus for relieving headaches, rhinitis and other common ailments” (priority 1999, published 2005).

Some results are limits rather than exact numbers.

The data set deals with mucous membrane of the nose, nasal passages, and mouth. Description: Effective and tolerable carbon dioxide flows found by the inventors (description). The format is in vivo, human. From the text: Furthermore, chronic inflammation of the mucosa and associated distress, caused by extended exposure to allergens and/or antigens, may be relieved within a few minutes by repeating such carbon dioxide applications. A possible mechanism of action of the above described local carbon dioxide treatment is the following. Creating a high concentration of carbon dioxide (hypercapnia) by infusing it into the nasal passages causes a very fast lowering of the pH (making more acidic) of the mucous membranes depressing the neuronal activity (inhibiting inflammatory mediator release such as histamine) of the nerves that supply the nasal mucous membranes and connect directly to the brainstem. Asthma is known to be a comorbid disease to allergic rhinitis. […] In addition, it is known that oxygenation is improved in patients with status asthmaticus, chronic obstructive pulmonary disease, and bronchiolitis by inhalation of helium. Also, inhaled nitric oxide improves the oxygenation and ventilation of most children with acute, hypoxic respiratory failure. For this reason, these respiratory ailments can be reduced or relieved by administering the above-described treatment using carbon dioxide or helium or nitric oxide. Furthermore, headaches (e.g., migraine headaches, tension-type headaches, cluster headaches, jaw pain, facial pain) are thought to be due to triggers creating a hyperexcitability state of nerves releasing inflammatory mediators such as histamine and serotonin. For this reason, headaches can be reduced or relieved by administering the above-described carbon dioxide treatment. Epilepsy, also a nervous hyperexcitability state, is known to be a comorbid disease to headaches and antiepileptic medications are used for migraine prevention. For this reason, epilepsy can be reduced or relieved by administering the above-described carbon dioxide treatment. […] Furthermore, other gases such as nitric oxide, oxygen, helium, and others may be administered similarly as therapeutic gases via the convenient hand-held easily controlled dispenser.
Furthermore, it is desirable that the user be able to conveniently but precisely and controllably select a rate and duration of carbon dioxide flow that lies between the lower limit of effectiveness and the upper limit of tolerance. […] Flows as low as 1 cc/sec for 1-2 seconds into the nose are effective for suppression of onset of acute allergic symptoms, whereas flows of 4-5 cc/sec for 5-10 seconds are typically selected for optimum relief from a mild chronic allergy attack. For severely inflamed mucosa and/or for injection into the mouth, flows as high as 10 cc/sec or higher for as long as 15 seconds or longer often are selected for optimum relief. For the treatment of tension and migraine headaches, the flow durations can be substantially longer, as generally set forth in the Dosage Guideline (Table I) above.
At low flow rates, the presence of the carbon dioxide produces a “tingling” sensation similar to that produced during drinking of carbonated beverages that inadvertently enter the nasal passages e.g., “bubbles up the nose”. This is the effective rate and the tingling is a welcome sensation because it usually coincides with immediate relief of symptoms. Above a certain subjectively determined flow rate the sensation becomes unpleasant, which may be described as a “stinging” or “burning” sensation. At a still higher flow rate (maximum tolerable rate), the stinging sensation becomes intolerable and subjects remove the device from their nostril. […] More typically, an injection rate of up to 10 cc/sec can be tolerated for 5 seconds or more into the nose by most users and into the mouth by almost all users. It must be noted, however, that the tolerance level depends strongly on the sequential phase of the application and on the degree of inflammation and/or pain at that phase. […]

In the case of `O=C=O` [carbon dioxide], the tolerance level reads like this: (a few individuals, a second or less of injection into the nose) 1-2 cc/sec; (typically, at the onset of the first carbon dioxide injection) below 3 cc/sec. The “suppression of onset of acute irritation of the mucosa” value (bathing mucous membrane of nose, nasal passages and mouth with gaseous carbon dioxide) is reported as “times as short as one second can suppress the onset of acute irritation of the mucosa”. The compound also registered an effective flow (for 1-2 seconds into the nose, suppression of onset of acute allergic symptoms) of at least 1 cc/sec. For the setting “for 5-10 seconds, mild chronic allergy attack”, the “flow typically selected for optimum relief” value is recorded as 4-5 cc/sec. Besides, the tolerated injection rate entry (for 5 seconds or more, into the nose by most users and into the mouth by almost all users) is listed as “up to 10 cc/sec”. The “flow often selected for optimum relief” value (severely inflamed mucosa and/or injection into the mouth, for as long as 15 seconds or longer) was at least 10 cc/sec.
